In patent publication US4288437A, “2-[(Amino)-aryl-methylene]-benzo[b]thiophen-3(2H)-ones” (Boehringer Ingelheim GmbH, priority 1979, dated 1981):
Like-named read-outs stand apart in the source and are kept apart here.

Tests used:
[1] = system: tonic extensor spasm of the rear legs of male mice under maximum electric shock; assay: Anticonvulsant activity in mice (inhibition of tonic extensor spasm under maximum electric shock); type: in vivo, male SPF mice (Chbb:NMRI); conditions: Mus musculus, po, p.o., 10 mice/dose
Description: 1. Anticonvulsant activity in mice
The anticonvulsant activity was tested as the inhibition of the tonic extensor spasm of the rear legs of male mice under maximum electric shock.
The test animals were male SPF mice (Chbb:NMRI) weighing 20 to 26 g which, up to one hour before oral administration of the test compound, had access to standard feed and drinking water.
The test procedure was based on that of SWINYARD, BROWN and GOODMAN (J. Pharmacol. Exp. Ther. 106, 319 [1952]). The electrical shock equipment was manufactured in accordance with information provided by WOODBURY and DAVENPORT (Arch. int. Pharmacodyn. 92, 97 [1952]). The electrical stimuli were applied to the heads of the animals above the eyes using chamois-covered steel ball electrodes moistened with a 0.9% NaCl solution. The stimulus lasted 0.2 sec. using alternating current of 50 Hz and 50 mA. There was a […] and then a tonic stretching spasm of the extremities in the case of all the controls.
The substance to be tested was suspended in a 1% tylose slurry and was perorally administered in a volume of 0.1 ml/10 gm mouse to 10 mice/dose. […], and the ED50 values were determined as the dosages sufficient to protect 50% of the animals against the tonic stretching spasm of the rear extremities, either graphically or by the method of LITCHFIELD and WILCOXON (J. Pharmacol. Exp. Ther. 96, 99 [1949]).

[2] = Orienting acute toxicity in mice; conditions: mouse, in vivo, po, observation period 7 days
Description: The orienting acute toxicity of the compounds was determined after administering a dose to groups of 6 or 10 mice each with body weights between 10 and 26 gm (observation period: 7 days).

[3] = 0.5 h, shock 30 minutes after administration, read-out: ED50, 30 minutes
[4] = 2.5 h, shock 150 minutes after administration, read-out: ED50, 150 minutes
[5] = 5 h, shock 300 minutes after administration, read-out: ED50, 300 minutes

Row | Compound | ED50 [1, 3] [mg/kg] | ED50 [1, 4] [mg/kg] | ED50 [1, 5] [mg/kg] | LD50 at 168 h [2] [mg/kg]
1 | N/C(=C1/Sc2ccccc2C1=O)c1ccccc1 [A, (E)-2-[(amino)phenylmethylene]-benzo[b]thiophen-3(2H)-one] | 12.8 | 37 | 46 | 2400
2 | CN/C(=C1/Sc2ccccc2C1=O)c1ccccc1 [B, (E)-2-[(methylamino)phenylmethylene]-benzo[b]thiophen-3(2H)-one] | 90 | 38 | 49 | > 1000
3 | N/C(=C1/Sc2ccccc2C1=O)c1ccccc1Cl [C, (E)-2-[(amino)-(2-chloro-phenyl)methylene]-benzo[b]thiophen-3(2H)-one] | 7 | 4.4 | 5 | 500 to 1000
4 | O=C1/C(=C(\NCCO)c2ccccc2)Sc2ccccc21 [D, (E)-2-{[(2-hydroxy-ethyl)amino]phenylmethylene}benzo[b]thiophen-3(2H)-one] | 33 | 41 | 42.5 | > 1000
5 | Cc1ccccc1/C(N)=C1\Sc2ccccc2C1=O [E, (E)-2-[(amino)-(2-methyl-phenyl)methylene]-benzo[b]-thiophen-3(2H)-one] | 22.8 | 13.3 | 15.7 | > 1000
6 | CCN/C(=C1/Sc2ccccc2C1=O)c1ccccc1 [F, (E)-2-[(ethylamino)phenylmethylene]-benzo[b]thiophen-3(2H)-one] | 22.5 | 54.6 | 79 | > 1000
